Assays:
Type in all cases: in vivo
[1] = test system: Cercospora beticola; assay: Leaf spot of sugar beets (CERCBE) disease control; conditions: 100 ppm; 1 Day Protectant; sugar beet
Procedure: All fungicides were evaluated using the aforementioned method for their activity vs. all target diseases, unless stated otherwise. Wheat leaf blotch and brown rust activity were also evaluated using track spray applications, in which case the fungicides were formulated as EC formulations, containing 0.1% Trycol 5941 in the spray solutions. Wheat plants (variety Yuma) were grown from seed in a greenhouse in 50% mineral soil/50% soil-less Metro mix until the first leaf was fully emerged, with 7-10 seedlings per pot. These plants were inoculated with an aqueous spore suspension of Zymoseptoria tritici either prior to or after fungicide treatments. After inoculation the plants were kept in 100% relative humidity (one day in a dark dew chamber followed by two to three days in a lighted dew chamber at 20° C.) to permit spores to germinate and infect the leaf. The plants were then transferred to a greenhouse set at 20° C. for disease to develop. When disease symptoms were fully expressed on the 1st leaves of untreated plants, infection levels were assessed on a scale of 0 to 100 percent disease severity. Percent disease control was calculated using the ratio of disease severity on treated plants relative to untreated plants. Example F: Evaluation of Fungicidal Activity: Leaf Spot of Sugar Beets (Cercospora beticola; Bayer Code CERCBE) Sugar beet plants (variety HH88) were grown in soil-less Metro mix and trimmed regularly to maintain a uniform plant size prior to test. Plants were inoculated with a spore suspension 24 hr after fungicide treatments. Inoculated plants were kept in a dew chamber at 22° C. for 48 hr then incubated in a greenhouse set at 24° C. under a clear plastic hood with bottom ventilation until disease symptoms were fully expressed. Fungicide formulation, application and disease assessment on the sprayed leaves followed the procedures as described in the Example A.

[2] = test system: Phakopsora pachyrhizi; assay: Asian soybean rust (PHAKPA) disease control; conditions: 25 ppm; for PHAKPA disease control, 1DP: 1 Day Protectant; for PHAKPA disease control, 3DC: 3 Day Curative
[3] = test system: Rhyncosporium secalis; assay: Barley scald (RHYNSE) disease control; parameters: key: A: > 80; B: ≤ 80; C: Not Tested; D: No Activity Observed in the Reported Assay; conditions: 100 ppm, 1 Day Protectant
Procedure: All fungicides were evaluated using the aforementioned method for their activity vs. all target diseases, unless stated otherwise. Wheat leaf blotch and brown rust activity were also evaluated using track spray applications, in which case the fungicides were formulated as EC formulations, containing 0.1% Trycol 5941 in the spray solutions. Wheat plants (variety Yuma) were grown from seed in a greenhouse in 50% mineral soil/50% soil-less Metro mix until the first leaf was fully emerged, with 7-10 seedlings per pot. These plants were inoculated with an aqueous spore suspension of Zymoseptoria tritici either prior to or after fungicide treatments. After inoculation the plants were kept in 100% relative humidity (one day in a dark dew chamber followed by two to three days in a lighted dew chamber at 20° C.) to permit spores to germinate and infect the leaf. The plants were then transferred to a greenhouse set at 20° C. for disease to develop. When disease symptoms were fully expressed on the 1st leaves of untreated plants, infection levels were assessed on a scale of 0 to 100 percent disease severity. Percent disease control was calculated using the ratio of disease severity on treated plants relative to untreated plants. Example H: Evaluation of Fungicidal Activity: Barley Scald (Rhyncosporium secalis; Bayer Code […]) Barley seedlings (variety Harrington) were propagated in soil-less Metro mix, with each pot having 8 to 12 plants, and used in the test when first leaf was fully emerged. Test plants were inoculated by an aqueous spore suspension of Rhyncosporium secalis 24 hr after fungicide treatments. After inoculation the plants were kept in a dew room at 22° C. with 100% relative humidity for 48 hr. The plants were then transferred to a greenhouse set at 20° C. for disease to develop. Fungicide formulation, application and disease assessment on the sprayed leaves followed the procedures as described in the Example A.

[4] = test system: Pyricularia oryzae; conditions: 100 ppm; 1 Day Protectant; rice
[5] = test system: Colletotrichum lagenarium; assay: Cucumber anthracnose (COLLLA) disease control; conditions: 100 ppm, 1 Day Protectant
Procedure: All fungicides were evaluated using the aforementioned method for their activity vs. all target diseases, unless stated otherwise. Wheat leaf blotch and brown rust activity were also evaluated using track spray applications, in which case the fungicides were formulated as EC formulations, containing 0.1% Trycol 5941 in the spray solutions. Wheat plants (variety Yuma) were grown from seed in a greenhouse in 50% mineral soil/50% soil-less Metro mix until the first leaf was fully emerged, with 7-10 seedlings per pot. These plants were inoculated with an aqueous spore suspension of Zymoseptoria tritici either prior to or after fungicide treatments. After inoculation the plants were kept in 100% relative humidity (one day in a dark dew chamber followed by two to three days in a lighted dew chamber at 20° C.) to permit spores to germinate and infect the leaf. The plants were then transferred to a greenhouse set at 20° C. for disease to develop. When disease symptoms were fully expressed on the 1st leaves of untreated plants, infection levels were assessed on a scale of 0 to 100 percent disease severity. Percent disease control was calculated using the ratio of disease severity on treated plants relative to untreated plants. Example K: Evaluation of Fungicidal Activity: Cucumber Anthracnose (Colletotrichum lagenarium; Bayer Code COLLLA) Cucumber seedlings (variety Bush Pickle) were propagated in soil-less Metro mix, with each pot having one plant, and used in the test when 12 to 14 days old. Test plants were inoculated with an aqueous spore suspension of Colletotrichum lagenarium 24 hr after fungicide treatments. After inoculation the plants were kept in a dew room at 22° C. with 100% relative humidity for 48 hr to permit spores to germinate and infect the leaf. The plants were then transferred to a growth room set at 22° C. for disease to develop. Fungicide formulation, application and disease assessment on the sprayed leaves followed the procedures as described in the Example A.

Compound	CERCBE disease control, 1DP [1]	PHAKPA disease control, 1DP [2]	PHAKPA disease control, 3DC [2]	RHYNSE disease control, 1DP [3]	PYRIOR disease control, 1DP [4]	COLLLA disease control, 1DP [5]
CCC(CC)[C@@H](Oc1ccc(F)cc1)[C@H](C)OC(=O)[C@H](C)NC(=O)c1nccc(OC)c1OCOC(C)=O [Cmpd 587]	A (> 80)	A (> 80)	B (≤ 80)	B (≤ 80)	A (> 80)	A (> 80)
COc1ccnc(C(=O)N[C@@H](C)C(=O)O[C@@H](C)[C@H](Oc2ccccc2)C(C)C)c1OCOC(C)=O [Cmpd 475]	A (> 80)	A (> 80)	A (> 80)	B (≤ 80)	A (> 80)	A (> 80)
CCC(CC)[C@@H](Oc1ccccc1)[C@H](C)OC(=O)[C@H](C)NC(=O)c1nccc(OC)c1OCOC(C)=O [Cmpd 477]	A (> 80)	A (> 80)	B (≤ 80)	B (≤ 80)	A (> 80)	A (> 80)
COc1ccnc(C(=O)N[C@@H](C)C(=O)O[C@@H](C)[C@H](Oc2cccc(Cl)c2)c2ccccc2)c1OCOC(C)=O [Cmpd 637]	B (≤ 80)	A (> 80)	B (≤ 80)	D	B (≤ 80)	B (≤ 80)
CCC[C@@H](Oc1ccccc1)[C@H](C)OC(=O)[C@H](C)NC(=O)c1nccc(OC)c1OCOC(C)=O [Cmpd 699]	A (> 80)	A (> 80)	B (≤ 80)	B (≤ 80)	A (> 80)	A (> 80)
COc1ccnc(C(=O)N[C@@H](C)C(=O)O[C@@H](C)[C@@H](CC(C)C)Oc2ccccc2)c1OCOC(=O)C(C)C [Cmpd 1101]	A (> 80)	A (> 80)	A (> 80)	A (> 80)	B (≤ 80)	A (> 80)
CCC(C)C(Oc1ccccc1)C(C)OC(=O)C(C)NC(=O)c1nccc(OC)c1OCOC(C)=O (stereo not drawn) [Cmpd 692]	A (> 80)	A (> 80)	B (≤ 80)	A (> 80)	A (> 80)	A (> 80)
COc1ccnc(C(=O)N[C@@H](C)C(=O)O[C@@H](C)[C@H](Oc2ccccc2Cl)c2ccccc2)c1OC(C)=O [Cmpd 640]	A (> 80)	B (≤ 80)	B (≤ 80)	B (≤ 80)	A (> 80)	A (> 80)

Source: US20180000085A1, “USE OF PICOLINAMIDE COMPOUNDS WITH FUNGICIDAL ACTIVITY” (DOW AGROSCIENCES LLC, priority 2014, published 2018)
